Measurements as given in the NIST ThermoML archive (doi:10.1021/je034002l).
Numbers after ± are expanded uncertainties.

Assay: xn = mol fraction of the nth substance listed
Conditions: 101.3 kPa, Liquid

CCCCCCCl [1-chlorohexane] + CCCCCC
mass density (293.15 K, x1 = 0.1): 683.01 ± 0.55 kg/m3 | viscosity (293.15 K, x1 = 0.1): 0.3403 ± 0.0053 mPa·s | mass density (293.15 K, x1 = 0.15): 694.01 ± 0.57 kg/m3 | viscosity (293.15 K, x1 = 0.15): 0.3532 ± 0.0054 mPa·s | mass density (293.15 K, x1 = 0.2): 706.37 ± 0.58 kg/m3 | viscosity (293.15 K, x1 = 0.2): 0.3669 ± 0.0056 mPa·s | mass density (293.15 K, x1 = 0.3): 728.21 ± 0.61 kg/m3 | viscosity (293.15 K, x1 = 0.3): 0.3965 ± 0.0059 mPa·s | mass density (293.15 K, x1 = 0.5): 771.87 ± 0.68 kg/m3 | viscosity (293.15 K, x1 = 0.5): 0.4691 ± 0.0067 mPa·s | mass density (293.15 K, x1 = 0.7): 815.39 ± 0.74 kg/m3 | viscosity (293.15 K, x1 = 0.7): 0.5662 ± 0.0078 mPa·s | mass density (293.15 K, x1 = 0.9): 856.91 ± 0.81 kg/m3 | viscosity (293.15 K, x1 = 0.9): 0.6932 ± 0.0093 mPa·s | mass density (293.15 K, x1 = 1): 878.52 ± 0.84 kg/m3 | viscosity (293.15 K, x1 = 1): 0.7704 ± 0.01 mPa·s | mass density (298.15 K, x1 = 0.1): 678.51 ± 0.59 kg/m3 | viscosity (298.15 K, x1 = 0.1): 0.3263 ± 0.0051 mPa·s | mass density (298.15 K, x1 = 0.15): 689.61 ± 0.61 kg/m3 | viscosity (298.15 K, x1 = 0.15): 0.3384 ± 0.0052 mPa·s | mass density (298.15 K, x1 = 0.2): 701.84 ± 0.62 kg/m3 | viscosity (298.15 K, x1 = 0.2): 0.352 ± 0.0054 mPa·s | mass density (298.15 K, x1 = 0.3): 723.73 ± 0.65 kg/m3 | viscosity (298.15 K, x1 = 0.3): 0.3794 ± 0.0057 mPa·s | mass density (298.15 K, x1 = 0.5): 767.36 ± 0.72 kg/m3 | viscosity (298.15 K, x1 = 0.5): 0.4464 ± 0.0065 mPa·s | mass density (298.15 K, x1 = 0.7): 810.91 ± 0.78 kg/m3 | viscosity (298.15 K, x1 = 0.7): 0.5367 ± 0.0075 mPa·s | mass density (298.15 K, x1 = 0.9): 852.37 ± 0.84 kg/m3 | viscosity (298.15 K, x1 = 0.9): 0.6495 ± 0.0088 mPa·s | mass density (298.15 K, x1 = 1): 873.75 ± 0.88 kg/m3 | viscosity (298.15 K, x1 = 1): 0.7173 ± 0.0096 mPa·s | mass density (303.15 K, x1 = 0.1): 673.93 ± 0.63 kg/m3 | viscosity (303.15 K, x1 = 0.1): 0.313 ± 0.005 mPa·s | mass density (303.15 K, x1 = 0.15): 685.15 ± 0.65 kg/m3 | viscosity (303.15 K, x1 = 0.15): 0.3245 ± 0.0051 mPa·s | mass density (303.15 K, x1 = 0.2): 697.27 ± 0.66 kg/m3 | viscosity (303.15 K, x1 = 0.2): 0.3377 ± 0.0052 mPa·s | mass density (303.15 K, x1 = 0.3): 719.21 ± 0.69 kg/m3 | viscosity (303.15 K, x1 = 0.3): 0.3632 ± 0.0055 mPa·s | mass density (303.15 K, x1 = 0.5): 762.82 ± 0.76 kg/m3 | viscosity (303.15 K, x1 = 0.5): 0.4254 ± 0.0062 mPa·s | mass density (303.15 K, x1 = 0.7): 806.39 ± 0.82 kg/m3 | viscosity (303.15 K, x1 = 0.7): 0.5094 ± 0.0072 mPa·s | mass density (303.15 K, x1 = 0.9): 847.8 ± 0.88 kg/m3 | viscosity (303.15 K, x1 = 0.9): 0.6103 ± 0.0084 mPa·s | mass density (303.15 K, x1 = 1): 868.98 ± 0.91 kg/m3 | viscosity (303.15 K, x1 = 1): 0.6702 ± 0.0091 mPa·s | mass density (308.15 K, x1 = 0.1): 669.37 ± 0.67 kg/m3 | viscosity (308.15 K, x1 = 0.1): 0.2998 ± 0.0048 mPa·s | mass density (308.15 K, x1 = 0.15): 680.63 ± 0.69 kg/m3 | viscosity (308.15 K, x1 = 0.15): 0.3107 ± 0.0049 mPa·s | mass density (308.15 K, x1 = 0.2): 692.67 ± 0.7 kg/m3 | viscosity (308.15 K, x1 = 0.2): 0.3233 ± 0.0051 mPa·s | mass density (308.15 K, x1 = 0.3): 714.64 ± 0.73 kg/m3 | viscosity (308.15 K, x1 = 0.3): 0.3475 ± 0.0054 mPa·s | mass density (308.15 K, x1 = 0.5): 758.26 ± 0.79 kg/m3 | viscosity (308.15 K, x1 = 0.5): 0.4061 ± 0.006 mPa·s | mass density (308.15 K, x1 = 0.7): 801.83 ± 0.86 kg/m3 | viscosity (308.15 K, x1 = 0.7): 0.4844 ± 0.0069 mPa·s | mass density (308.15 K, x1 = 0.9): 843.21 ± 0.92 kg/m3 | viscosity (308.15 K, x1 = 0.9): 0.5754 ± 0.008 mPa·s | mass density (308.15 K, x1 = 1): 864.21 ± 0.95 kg/m3 | viscosity (308.15 K, x1 = 1): 0.6283 ± 0.0086 mPa·s | mass density (313.15 K, x1 = 0.1): 664.73 ± 0.71 kg/m3 | viscosity (313.15 K, x1 = 0.1): 0.2881 ± 0.0047 mPa·s | mass density (313.15 K, x1 = 0.15): 676.04 ± 0.73 kg/m3 | viscosity (313.15 K, x1 = 0.15): 0.2985 ± 0.0048 mPa·s | mass density (313.15 K, x1 = 0.2): 688.03 ± 0.74 kg/m3 | viscosity (313.15 K, x1 = 0.2): 0.3109 ± 0.005 mPa·s | mass density (313.15 K, x1 = 0.3): 710.03 ± 0.77 kg/m3 | viscosity (313.15 K, x1 = 0.3): 0.3337 ± 0.0052 mPa·s | mass density (313.15 K, x1 = 0.5): 753.66 ± 0.83 kg/m3 | viscosity (313.15 K, x1 = 0.5): 0.3884 ± 0.0058 mPa·s | mass density (313.15 K, x1 = 0.7): 797.24 ± 0.9 kg/m3 | viscosity (313.15 K, x1 = 0.7): 0.4614 ± 0.0067 mPa·s | mass density (313.15 K, x1 = 0.9): 838.59 ± 0.96 kg/m3 | viscosity (313.15 K, x1 = 0.9): 0.5436 ± 0.0076 mPa·s | mass density (313.15 K, x1 = 1): 859.44 ± 0.99 kg/m3 | viscosity (313.15 K, x1 = 1): 0.591 ± 0.0082 mPa·s | mass density (318.15 K, x1 = 0.1): 660.04 ± 0.75 kg/m3 | viscosity (318.15 K, x1 = 0.1): 0.2765 ± 0.0046 mPa·s | mass density (318.15 K, x1 = 0.15): 671.39 ± 0.77 kg/m3 | viscosity (318.15 K, x1 = 0.15): 0.2865 ± 0.0047 mPa·s | mass density (318.15 K, x1 = 0.2): 683.36 ± 0.78 kg/m3 | viscosity (318.15 K, x1 = 0.2): 0.2984 ± 0.0048 mPa·s | mass density (318.15 K, x1 = 0.3): 705.37 ± 0.81 kg/m3 | viscosity (318.15 K, x1 = 0.3): 0.3201 ± 0.0051 mPa·s | mass density (318.15 K, x1 = 0.5): 749.03 ± 0.87 kg/m3 | viscosity (318.15 K, x1 = 0.5): 0.372 ± 0.0057 mPa·s | mass density (318.15 K, x1 = 0.7): 792.61 ± 0.94 kg/m3 | viscosity (318.15 K, x1 = 0.7): 0.4402 ± 0.0064 mPa·s | mass density (318.15 K, x1 = 0.9): 833.95 ± 1 kg/m3 | viscosity (318.15 K, x1 = 0.9): 0.5152 ± 0.0073 mPa·s | mass density (318.15 K, x1 = 1): 854.67 ± 1 kg/m3 | viscosity (318.15 K, x1 = 1): 0.558 ± 0.0078 mPa·s | mass density (323.15 K, x1 = 0.1): 655.31 ± 0.79 kg/m3 | viscosity (323.15 K, x1 = 0.1): 0.266 ± 0.0045 mPa·s | mass density (323.15 K, x1 = 0.15): 666.68 ± 0.81 kg/m3 | viscosity (323.15 K, x1 = 0.15): 0.2755 ± 0.0046 mPa·s | mass density (323.15 K, x1 = 0.2): 678.65 ± 0.82 kg/m3 | viscosity (323.15 K, x1 = 0.2): 0.2868 ± 0.0047 mPa·s | mass density (323.15 K, x1 = 0.3): 700.66 ± 0.85 kg/m3 | viscosity (323.15 K, x1 = 0.3): 0.3076 ± 0.0049 mPa·s | mass density (323.15 K, x1 = 0.5): 744.37 ± 0.91 kg/m3 | viscosity (323.15 K, x1 = 0.5): 0.3569 ± 0.0055 mPa·s | mass density (323.15 K, x1 = 0.7): 787.95 ± 0.97 kg/m3 | viscosity (323.15 K, x1 = 0.7): 0.4208 ± 0.0062 mPa·s | mass density (323.15 K, x1 = 0.9): 829.29 ± 1 kg/m3 | viscosity (323.15 K, x1 = 0.9): 0.4899 ± 0.007 mPa·s | mass density (323.15 K, x1 = 1): 849.9 ± 1.1 kg/m3 | viscosity (323.15 K, x1 = 1): 0.5285 ± 0.0075 mPa·s | mass density (328.15 K, x1 = 0.1): 650.53 ± 0.83 kg/m3 | viscosity (328.15 K, x1 = 0.1): 0.256 ± 0.0043 mPa·s | mass density (328.15 K, x1 = 0.15): 661.91 ± 0.85 kg/m3 | viscosity (328.15 K, x1 = 0.15): 0.2652 ± 0.0044 mPa·s | mass density (328.15 K, x1 = 0.2): 673.9 ± 0.86 kg/m3 | viscosity (328.15 K, x1 = 0.2): 0.2759 ± 0.0046 mPa·s | mass density (328.15 K, x1 = 0.3): 695.91 ± 0.89 kg/m3 | viscosity (328.15 K, x1 = 0.3): 0.2959 ± 0.0048 mPa·s | mass density (328.15 K, x1 = 0.5): 739.68 ± 0.95 kg/m3 | viscosity (328.15 K, x1 = 0.5): 0.3428 ± 0.0053 mPa·s | mass density (328.15 K, x1 = 0.7): 783.25 ± 1 kg/m3 | viscosity (328.15 K, x1 = 0.7): 0.4027 ± 0.006 mPa·s | mass density (328.15 K, x1 = 0.9): 824.61 ± 1.1 kg/m3 | viscosity (328.15 K, x1 = 0.9): 0.4666 ± 0.0068 mPa·s | mass density (328.15 K, x1 = 1): 845.12 ± 1.1 kg/m3 | viscosity (328.15 K, x1 = 1): 0.5019 ± 0.0072 mPa·s | mass density (333.15 K, x1 = 0.1): 645.7 ± 0.87 kg/m3 | viscosity (333.15 K, x1 = 0.1): 0.2468 ± 0.0042 mPa·s | mass density (333.15 K, x1 = 0.15): 657.07 ± 0.89 kg/m3 | viscosity (333.15 K, x1 = 0.15): 0.2556 ± 0.0043 mPa·s | mass density (333.15 K, x1 = 0.2): 669.12 ± 0.9 kg/m3 | viscosity (333.15 K, x1 = 0.2): 0.2658 ± 0.0045 mPa·s | mass density (333.15 K, x1 = 0.3): 691.11 ± 0.93 kg/m3 | viscosity (333.15 K, x1 = 0.3): 0.2849 ± 0.0047 mPa·s | mass density (333.15 K, x1 = 0.5): 734.96 ± 0.99 kg/m3 | viscosity (333.15 K, x1 = 0.5): 0.3297 ± 0.0052 mPa·s | mass density (333.15 K, x1 = 0.7): 778.51 ± 1.1 kg/m3 | viscosity (333.15 K, x1 = 0.7): 0.3862 ± 0.0058 mPa·s | mass density (333.15 K, x1 = 0.9): 819.9 ± 1.1 kg/m3 | viscosity (333.15 K, x1 = 0.9): 0.4455 ± 0.0065 mPa·s | mass density (333.15 K, x1 = 1): 840.35 ± 1.1 kg/m3 | viscosity (333.15 K, x1 = 1): 0.4778 ± 0.0069 mPa·s
